# Reference: patent US8575173B2, “Piperazinyl 3-aminopyrrolidine derivatives as a CCR2 antagonists” (Yang Ji Chemical Co., Ltd., priority 2009, dated 2013)
# Tests used:
# CCR2b = target: T1, CCR2b (Homo sapiens, UniProt P41597); assay: CCR2 inhibitory effect on Ca2+ flux (HEK293/CCR2b, MCP-1 stimulated); assay type: cell-based; details: HEK293/CCR2b cells, MCP-1 added; read-out: Blocking Ca^2+ flux, IC50
# T1 construct: expressed in transfected cells; host or cells: HEK293
# T1 sequence (P41597 1-360 isoform P41597-2): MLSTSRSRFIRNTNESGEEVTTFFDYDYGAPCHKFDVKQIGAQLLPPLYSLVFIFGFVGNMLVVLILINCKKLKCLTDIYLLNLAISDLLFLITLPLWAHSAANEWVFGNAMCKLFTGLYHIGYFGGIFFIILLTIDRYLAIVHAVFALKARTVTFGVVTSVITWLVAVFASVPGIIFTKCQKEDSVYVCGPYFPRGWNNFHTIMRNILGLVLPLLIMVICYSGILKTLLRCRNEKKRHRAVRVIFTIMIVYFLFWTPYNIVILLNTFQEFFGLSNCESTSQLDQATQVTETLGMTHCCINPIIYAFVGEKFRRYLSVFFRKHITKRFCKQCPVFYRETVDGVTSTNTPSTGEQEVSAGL
# Experimental: After seeding CCR2b transformed cell (HEK293/CCR2b) on black-clear bottom plate coated with lysine, it was adapted for 24 hours and exchanged into serum free media (DMEM) and allowed to cultivate overnight. Next day After the compound is treated with Flour-4 (calcium dye, Molecular probe) and cultivated for 50 min on incubator, it is washed calcium-free buffer solution and pretreated for 10-15 min. It is added with MCP-1 and its signal is measured with FlexStation^II (Molecular device).
# CYP3A4 = CYP3A4 (Homo sapiens, UniProt P08684); assay: CYP450 inhibitory activity, CYP3A4; assay type: in vitro ADME; details: CYP3A4 enzyme membrane, 10 μM compound, read-out: Inhibition of CYP450, % @10 μM: 3A4
# Experimental: (§1) It is analyzed inhibitory activity assay on 5 types (CYP3A4, 2C9, 2C19, 2D6, 1A2) of 11 types CYP450, drug metabolic enzyme. Luciferin detection reagent is dissolved in buffer solution and each CYP enzyme membrane is prepared.
# (§2) 4-fold concentration of the compound in 6.25 μl is prepared, and added to 6.25 μl mixture containing enzyme and proper different substrate depending on enzyme types, and kept for 10 min. After reacting with 12.5 μl NADPH regeneration reagent of CYP enzyme for 30 min, adding 25 μl luciferin detection reagent and keeping for 20 min, luminescence is measured at Fusion α.
# CYP2C9 = CYP2C9 (Homo sapiens, UniProt P11712); assay: CYP450 inhibitory activity, CYP2C9; assay type: in vitro ADME; details: CYP2C9 enzyme membrane, 10 μM compound, read-out: Inhibition of CYP450, % @10 μM: 2C9
# Experimental: as §1, §2
# CYP2C19 = CYP2C19 (Homo sapiens, UniProt P33261); assay: CYP450 inhibitory activity, CYP2C19; assay type: in vitro ADME; details: CYP2C19 enzyme membrane, 10 μM compound, read-out: Inhibition of CYP450, % @10 μM: 2C19
# Experimental: as §1, §2
# CYP2D6 = CYP2D6 (Homo sapiens, UniProt P10635); assay: CYP450 inhibitory activity, CYP2D6; assay type: in vitro ADME; details: CYP2D6 enzyme membrane, 10 μM compound, read-out: Inhibition of CYP450, % @10 μM: 2D6
# Experimental: Luciferin detection reagent is dissolved in buffer solution and each CYP enzyme membrane is prepared. […] After reacting with 12.5 μl NADPH regeneration reagent of CYP enzyme for 30 min, adding 25 μl luciferin detection reagent and keeping for 20 min, luminescence is measured at Fusion α.
# CYP1A2 = target: T2, CYP1A2 (Homo sapiens, UniProt P05177); assay: CYP450 inhibitory activity, CYP1A2; assay type: in vitro ADME; details: CYP1A2 enzyme membrane, 10 μM compound, read-out: Inhibition of CYP450, % @10 μM: 1A2
# T2 sequence (P05177 1-516): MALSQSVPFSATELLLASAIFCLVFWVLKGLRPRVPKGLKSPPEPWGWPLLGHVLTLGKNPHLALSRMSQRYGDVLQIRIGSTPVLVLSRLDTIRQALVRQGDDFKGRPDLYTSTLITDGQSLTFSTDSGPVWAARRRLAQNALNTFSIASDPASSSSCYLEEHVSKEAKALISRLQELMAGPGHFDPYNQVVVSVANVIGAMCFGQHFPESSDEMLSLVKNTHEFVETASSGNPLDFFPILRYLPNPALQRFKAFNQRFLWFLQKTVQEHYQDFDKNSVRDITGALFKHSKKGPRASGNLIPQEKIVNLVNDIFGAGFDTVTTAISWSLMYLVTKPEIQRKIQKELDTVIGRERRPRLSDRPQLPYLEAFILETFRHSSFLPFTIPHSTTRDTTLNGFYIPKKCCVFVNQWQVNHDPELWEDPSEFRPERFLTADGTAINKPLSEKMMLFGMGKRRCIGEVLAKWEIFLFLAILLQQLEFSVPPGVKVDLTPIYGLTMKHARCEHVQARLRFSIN
# Experimental: as §1, §2
# HepG2 = assay: Cytotoxicity (cell viability, MTS assay), HepG2; assay type: cell-based; details: 10 μM compound, vs control group
# Source text: (§3) The MTS (3-(4,5-dimethylthiazol-2-yl)-5-(3-carboxymethoxyphenyl)-2-(4-sulfophenyl)-2H-tetrazolium, inner salt, Promega, U.S.A) assay to THP-1 cell is used to measure cytotoxicity of test compound. The MTS assay is applicable to sensitively measure viability, multiplication and activity of cell and is a method using transformation the yellow MTS into insoluble formazan by dehydrogenase of mitochondria during metabolism of viable cell. The THP-1 cell is proliferated on RPMI-1640 supplemented with 10% fetal bovine serum under 37° C., at 5% CO2 incubator. Cell density is maintained around 0.5×10^6 cells/ml. THP-1 cell is poured into 96-well plate in 1×10^6 cell/ml and treating with 1, 10 μM concentration of test compound, after 24 hours 20 μl of 317 μg/ml MTS is treated to 96-well plate. Cell viability as the he absorbance of crystalline formazan of test group to control group observed at 490 nm using ELISA reader after 1 hour is calculated by following mathematical formula 2. Cell viability(%)=(Absorbance of experimental wells)/(Absorbance of control wells))×100 [Mathematical Formula 2]
# (§4) The cell cytotoxicity test is performed to many cell lines, for example HepG2, NIH3T3, CHO-K1, HEK293, in addition to THP-1 illustrated above, and test procedures related to these are same or similar as described method above.
# NIH 3T3 = assay: Cytotoxicity (cell viability, MTS assay), NIH 3T3; assay type: cell-based; details: 10 μM compound, vs control group
# Source text: as §3, §4
# CHO-K1 = assay: Cytotoxicity (cell viability, MTS assay), CHO-K1; assay type: cell-based; details: 10 μM compound, vs control group
# Source text: as §3, §4
# HEK 293 = assay: Cytotoxicity (cell viability, MTS assay), HEK 293; assay type: cell-based; details: 10 μM compound, vs control group
# Source text: as §3, §4
# CCR2 [1] = target: T3, CCR2 (Homo sapiens, UniProt P41597); assay: Inhibitory effect on MCP-1 induced chemotaxis of THP-1 cells; assay type: cell-based; set-up: endogenous in cells; host or cells: THP-1; details: hMCP-1 10 ng/ml, 2 hours, read-out: Inhibition of Chemotaxis, IC50
# Experimental: Antagonistic effect on the compound on CCR2 activity was measured by leukocyte chemotaxis assay using a proper cell line.
# The used cell line is THP-1 and it is proliferated RPMI-1640 supplemented with 10% fetal calf serum under 37° C. at 5% CO2 incubator. Cell density was maintained near about 0.5×10^6 cells/ml.
# Cell is allowed to have chemotaxis under 37° C., 5% CO2 incubator for 2 hours. After incubating for 2 hours, cells which is not moved from the upper side of filter are removed by wiping the filter with cotton swab.
# The cells moved to lower chamber was measured using fluorescent plate reader under λexcite=480 nm, λexit=520 nm.
# The chemotaxis may be described as chemotaxis coefficient, ratio between mean value of cells moved under existence of MCP-1 and mean value of cells moved under absence of chemokine.
# CCR2 [2] = target: T3, CCR2; assay: CCR2 receptor protein binding assay ([125I]-MCP1); set-up: purchased Perkinelmer, USA; host or cells: CHO cell membranes; details: [125I]-MCP1 binding, CCR2 membrane expressed in CHO cell; read-out: Affinity to CCR2 receptor, IC50
# Experimental: The buffer used for receptor binding assay is 50 mM Hepes (pH 7.4) containing 5 mM MgCl2, 1 mM CaCl2 and 0.5% BSA. The resultant reaction mixture in final volume 0.25 ml is prepared by adding CCR2 membrane (10 μg/well), [^125I]-MCP1 to test drug in 96-well plate on [^125I]-MCP1 binding assay and is cultivated on 27° C. for 60 min.
# After incubation, reaction is terminated with fast filtering through Wallac filtermat A GF/C glass fiber filter (Wallac, Finland) pre-wetted in 0.5% PEI using Inotech harvester (Inotech) and is washed in cold 50 mM Tris-HCl (pH 7.4) buffer solution. After filter is covered with MeltiLex, it is sealed in sample bag, dried on oven, and counted using MicroBeta Plus (Wallac).
# […] is used in non-specific binding measurement.
# T3 sequence (P41597 whole entry): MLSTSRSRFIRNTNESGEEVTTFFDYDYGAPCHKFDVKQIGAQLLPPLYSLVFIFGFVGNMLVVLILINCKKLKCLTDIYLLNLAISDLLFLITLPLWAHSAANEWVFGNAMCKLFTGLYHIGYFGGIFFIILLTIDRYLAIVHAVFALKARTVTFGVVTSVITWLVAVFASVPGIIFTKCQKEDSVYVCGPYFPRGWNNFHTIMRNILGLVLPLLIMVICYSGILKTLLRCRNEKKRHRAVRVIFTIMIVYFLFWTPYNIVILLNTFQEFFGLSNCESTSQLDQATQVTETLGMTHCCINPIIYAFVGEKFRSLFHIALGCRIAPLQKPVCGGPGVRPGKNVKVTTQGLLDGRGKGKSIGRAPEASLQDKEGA
# Chain of CYP2C9 (P11712 whole entry): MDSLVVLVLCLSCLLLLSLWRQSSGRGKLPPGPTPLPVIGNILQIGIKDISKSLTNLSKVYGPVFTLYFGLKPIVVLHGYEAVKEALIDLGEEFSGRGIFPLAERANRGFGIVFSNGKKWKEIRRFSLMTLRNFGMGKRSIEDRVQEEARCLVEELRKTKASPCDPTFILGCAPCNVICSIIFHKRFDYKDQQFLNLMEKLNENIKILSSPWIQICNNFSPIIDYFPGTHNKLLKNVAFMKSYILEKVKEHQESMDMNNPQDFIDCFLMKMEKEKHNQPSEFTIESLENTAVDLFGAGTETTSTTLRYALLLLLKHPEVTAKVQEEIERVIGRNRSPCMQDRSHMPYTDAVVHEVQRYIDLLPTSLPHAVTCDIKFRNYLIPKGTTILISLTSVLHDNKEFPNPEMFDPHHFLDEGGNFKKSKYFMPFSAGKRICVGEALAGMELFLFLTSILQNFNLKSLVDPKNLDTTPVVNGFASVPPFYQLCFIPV
# Chain of CYP3A4 (P08684 whole entry): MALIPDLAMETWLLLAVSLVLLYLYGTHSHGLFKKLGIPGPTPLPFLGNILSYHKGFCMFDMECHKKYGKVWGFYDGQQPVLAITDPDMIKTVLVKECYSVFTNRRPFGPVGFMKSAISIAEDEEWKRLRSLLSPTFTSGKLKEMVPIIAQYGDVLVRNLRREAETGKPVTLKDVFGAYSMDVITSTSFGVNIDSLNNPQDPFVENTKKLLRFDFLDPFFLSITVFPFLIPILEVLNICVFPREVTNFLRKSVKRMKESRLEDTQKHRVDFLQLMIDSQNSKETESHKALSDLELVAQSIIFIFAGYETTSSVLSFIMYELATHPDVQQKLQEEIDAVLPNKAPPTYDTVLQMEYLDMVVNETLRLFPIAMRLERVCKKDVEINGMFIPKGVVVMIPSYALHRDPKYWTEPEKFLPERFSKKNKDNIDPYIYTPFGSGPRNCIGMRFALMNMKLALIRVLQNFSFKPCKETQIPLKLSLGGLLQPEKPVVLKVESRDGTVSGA
# Chain of CYP2C19 (P33261 whole entry): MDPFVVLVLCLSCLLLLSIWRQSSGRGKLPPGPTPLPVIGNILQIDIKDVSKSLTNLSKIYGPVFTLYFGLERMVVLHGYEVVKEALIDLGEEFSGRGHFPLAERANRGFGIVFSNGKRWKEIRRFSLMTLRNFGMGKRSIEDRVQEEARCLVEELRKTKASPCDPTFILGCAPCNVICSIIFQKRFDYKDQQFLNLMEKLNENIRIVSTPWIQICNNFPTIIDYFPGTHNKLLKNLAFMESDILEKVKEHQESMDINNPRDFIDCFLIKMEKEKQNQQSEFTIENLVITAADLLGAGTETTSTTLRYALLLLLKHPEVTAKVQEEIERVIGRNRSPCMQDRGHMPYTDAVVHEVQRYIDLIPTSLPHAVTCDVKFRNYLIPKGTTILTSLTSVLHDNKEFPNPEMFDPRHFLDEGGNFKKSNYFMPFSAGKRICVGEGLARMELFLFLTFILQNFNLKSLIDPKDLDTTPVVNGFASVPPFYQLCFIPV
# Chain of CYP2D6 (P10635 whole entry, the tested form may be a part): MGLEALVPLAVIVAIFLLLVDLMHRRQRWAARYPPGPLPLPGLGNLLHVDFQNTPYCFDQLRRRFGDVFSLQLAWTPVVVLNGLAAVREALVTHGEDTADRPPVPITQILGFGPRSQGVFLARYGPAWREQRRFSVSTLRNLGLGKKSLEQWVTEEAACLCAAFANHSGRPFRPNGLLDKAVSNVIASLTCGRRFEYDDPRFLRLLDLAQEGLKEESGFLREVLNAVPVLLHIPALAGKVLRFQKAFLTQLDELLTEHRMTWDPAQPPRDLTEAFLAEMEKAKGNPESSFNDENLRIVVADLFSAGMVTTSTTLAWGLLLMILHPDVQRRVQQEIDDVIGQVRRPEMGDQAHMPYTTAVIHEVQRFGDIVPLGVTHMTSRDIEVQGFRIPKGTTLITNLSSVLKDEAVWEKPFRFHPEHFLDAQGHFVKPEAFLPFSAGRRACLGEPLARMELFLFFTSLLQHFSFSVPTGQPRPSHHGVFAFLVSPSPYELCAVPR
IC50 (CCR2b) [nM],"inhibition at 30 min, 10 µM (CYP3A4) [%]","inhibition at 30 min, 10 µM (CYP2C9) [%]","inhibition at 30 min, 10 µM (CYP2C19) [%]","inhibition at 30 min, 10 µM (CYP2D6) [%]","inhibition at 30 min, 10 µM (CYP1A2) [%]",IC50 (CCR2 [1]) [nM],IC50 (CCR2 [2]) [nM],SMILES,"Cell viability, % @10 μM: HepG2 (HepG2) [%]","Cell viability, % @10 μM: NIH 3T3 (NIH 3T3) [%]","Cell viability, % @10 μM: CHO-K1 (CHO-K1) [%]","Cell viability, % @10 μM: HEK 293 (HEK 293) [%]"
18,6.5,23.6,14.2,8.5,23.5,9,990,"O=C(CNC(=O)c1cccc(C(F)(F)F)c1)N[C@@H]1CCN(CCN2CCN(C(=O)c3ccccc3)CC2)C1 [Example 6, N-{[1-(2-(4-benzoylpiperazine-1-yl)ethyl)-pyrrolidine-(3R)-yl-carbamoyl]-methyl}-3-trifluoromethylbenzamide]",73.5,70.6,84.6,59.3
120,28.2,19,9.5,-3.5,6.6,70,4440,"Cc1ccccc1C(=O)N1CCN(CCN2CC[C@@H](NC(=O)CNC(=O)c3cccc(C(F)(F)F)c3)C2)CC1 [Example 7, N-{[1-(2-(4-(2-methylbenzoyl)piperazine-1-yl)ethyl)-pyrrolidine-(3R)-yl-carbamoyl]-methyl}-3-trifluoromethylbenzamide]",105.8,73.0,80.1,66.9
